These are literature values, as cited in patent publication US10293012B2 (priority 2017, dated 2019).

The test system of the data set is HSV1.

As for heparin [Soluble heparin], the “inhibition of HSV1 infection” value is given as “competitively inhibit”.
